Converted amounts (≈) assume the structure as drawn.
Experiments:
[1] = test system: Epidermophyton floccus; assay: In vitro contact assay (Example 26); type: cell-based; conditions: 5 days at 28 C, 100% control; for MIC: Epidermophyton, 120 h, read-out: MIC (mg/L) Epidermophyton floccus
Description: (§1) Half-strength Potato Dextrose Agar (PDA) is amended with a mixture of one of the test compounds in acetone or methanol to a final concentration of 50, 10, 2, 0.4 or 0.08 mg/L. A 3-mL volume of the amended media is added to each well of the microtiter plate. […] The plates are sealed with a clear film and incubated inverted for 5 days at 28° C.

[2] = test system: Trichophyton mentagrophytes; assay: In vitro contact assay (Example 26); type: cell-based; conditions: 5 days at 28 C, 100% control; for MIC: Trichophyton mentagrophytes, 120 h, read-out: MIC (mg/L) Trichophyton mentagrophytes
Description: as §1

[3] = test system: Trichophyton rubrum; assay: In vitro contact assay (Example 26); type: cell-based; conditions: 5 days at 28 C, 100% control; for MIC: Trichophyton rubrum, 120 h, read-out: MIC (mg/L) Trichophyton rubrum
Description: as §1

[4] = test system: Epidermophyton floccus; assay: In vitro volatile assay (Example 26); type: cell-based; conditions: 5 days at 28 C, 100% control; for MIC: Epidermophyton, 120 h, read-out: MIC (mg/L) Epidermophyton floccus
Description: (§2) Volatile assay: 6-well (16.5 mL volume per well) microtiter plates are used in an in vitro inhibition assay for Compounds A and 31, and compared to other registered fungicides (5-fluorocytosine, Amphotericin B, aspofungin diacetate, Fluconazole and Itraconazole). A 7.5-mL volume of half strength PDA is added to each well. After drying, a mycelial plug (5 mm diameter) is aseptically obtained from actively growing cultures of Epidermophyton floccus, Trichophyton rubrum, or Trichophyton mentagrophytes and placed at the center of the plate with the mycelial side in contact with the agar. A Whatman #1 filter disk (Cat. No. 1001-325) is placed, in duplicate, on the underside of a polyethylene PCR plate sealing film. […] The headspace around the inoculum is then sealed inside the well by the film with the adhering disk containing the fungicide and incubated inverted for 5 days at 28° C.

[5] = test system: Trichophyton mentagrophytes; assay: In vitro volatile assay (Example 26); type: cell-based; conditions: 5 days at 28 C, 100% control; for MIC: Trichophyton mentagrophytes, 120 h, read-out: MIC (mg/L) Trichophyton mentagrophytes
Description: as §2

[6] = test system: Trichophyton rubrum; assay: In vitro volatile assay (Example 26); type: cell-based; conditions: 5 days at 28 C, 100% control; for MIC: Trichophyton rubrum, 120 h, read-out: MIC (mg/L) Trichophyton rubrum
Description: as §2

[7] = test system: Penicillium digitatum; assay: Green mold on orange, volatile assay (Example 25); type: in vivo; conditions: 50 mg/L, day 3 at 21 C after 5 days at 1 C
[8] = test system: Penicillium expansum; assay: Blue mold on apple and pear, contact assay (Example 25); type: in vivo; conditions: Contact (dip); rate not given; day 3 at 21 C after 5 days at 1 C
Description: (§3) A 250 mL solution of each concentration is used to dip two inoculated fruits, one minute per fruit, performed in triplicate per rate. The dipped fruits are then placed back into the clamshells and then into the SnapWare container and incubated at 1° C. for 5 days. […] Volatile application of Compound A results in excellent inhibition of browning and sporulation, whereas all other active ingredients result in no or little inhibition.

[9] = test system: Penicillium digitatum; assay: Green mold on orange, contact assay (Example 25); type: in vivo; conditions: Contact (dip); rate not given; day 3 at 21 C after 5 days at 1 C
Description: as §3

[10] = test system: Penicillium expansum; assay: Blue mold on apple and pear, volatile assay (Example 25); conditions: 50 mg/L, day 3 at 21 C after 5 days at 1 C
Description: Two apples, pears or oranges are placed in a clamshell, and three fresh wounds are made near the equatorial region of each fruit. Each fruit wound is then inoculated with 20 μL of 1×10^6 spores per mL of Penicillium expansum or digitatum suspension, respectively. The inoculum is allowed to dry for two hours prior to treatment application as a volatile or contact.
Volatile Assay: Clamshells are then placed at the bottom of a 2.55-L SnapWare airtight container (Model #109842). […] The solutions are pipetted into Whatman filter disks mounted to the inside lid of the container. The chambers are then incubated at 1° C. for 5 days, removed to 21° C., and evaluated on day 3 by determining the diameter (mm) of rot development (browning) or sporulation.

[11] = test system: Alternaria alternata; assay: Volatile MIC assay (Example 9); type: cell-based; conditions: 72 h, headspace concentration, 3 days at 23 C, read-out: MIC (mg/L) ALTEAL
Description: (§4) A 3-mL volume of full-strength Potato Dextrose Agar (PDA) is added to each well. […] Plates are inoculated immediately prior to volatile fungicide treatment. A Whatman #1 filter disk (Cat. No. 1001-0155) is placed, in duplicate, on the underside of a polyethylene PCR plate sealing film. […] The acetone is permitted to evaporate for 5 minutes. The headspace around the inoculum is then sealed inside the well by the film with the adhering disk containing the fungicide by inverting the plates over the treated disks and sealing to prevent any of the chemical from flaking from the disk and falling onto the inoculated agar.

[12] = test system: Botrytis cinerea; assay: Volatile MIC assay (Example 9); type: cell-based; conditions: 72 h, headspace concentration, 3 days at 23 C, read-out: MIC (mg/L) BOTRCI
Description: as §4

[13] = test system: Glomerella cingulata; assay: Volatile MIC assay (Example 9); type: cell-based; conditions: Colletotrichum gloeosporioides, 72 h, headspace concentration, 3 days at 23 C, read-out: MIC (mg/L) GLOMCI
Description: as §4

[14] = test system: Monilinia fructicola; assay: Volatile MIC assay (Example 9); type: cell-based; conditions: 72 h, headspace concentration, 3 days at 23 C, read-out: MIC (mg/L) MONIFC
Description: as §4

[15] = test system: Penicillium expansum; assay: Volatile MIC assay (Example 9); type: cell-based; conditions: 72 h, headspace concentration, 3 days at 23 C, read-out: MIC (mg/L) PENIEX
Description: as §4

[16] = test system: B. cinerea; assay: In vitro contact assay, amended agar (Example 24); type: cell-based; conditions: Botrytis cinerea, 72 h; amended agar; 100% control; 3 days at 23 C; read-out: Contact MIC (mg/L) B. cinerea
Description: (§5) Contact assay: 6-well (16.5 mL volume per well) microtiter plates are used for an in vitro inhibition assay. […] A 7.5-mL volume of the amended media is added to each well of the microtiter plate. […] The plates are sealed with a clear film and incubated for 3 days at 23° C. After incubation, plates are evaluate for percent growth relative to acetone only control.

[17] = test system: P. expansum; assay: In vitro contact assay, amended agar (Example 24); type: cell-based; conditions: Penicillium expansum, 72 h; amended agar; 100% control; 3 days at 23 C; read-out: Contact MIC (mg/L) P. expansum
Description: as §5

[18] = test system: Botrytis cinerea; assay: In vitro volatile assay (Example 24); type: cell-based; conditions: 72 h, headspace, 100% control, 3 days at 23 C, read-out: Volatile MIC (mg/L) B. cinerea
Description: (§6) Volatile assay: 12-well (6.5 mL volume per well) microtiter plates are used. A 3-mL volume of half strength PDA is added to each well. […] A Whatman #1 filter disk (Cat. No. 1001-0155) is placed, in duplicate, on the underside of a polyethylene PCR plate sealing film. […] The acetone is permitted to evaporate for 5 minutes. The headspace around the inoculum is then sealed inside the well by the film with the adhering disk containing the fungicide. Plates are inverted, placed over the treated disks, and sealed to prevent any of the chemical from flaking from the disk and falling onto the inoculated agar. […] Contact assay: 6-well (16.5 mL volume per well) microtiter plates are used for an in vitro inhibition assay. […] A 7.5-mL volume of the amended media is added to each well of the microtiter plate. […] The plates are sealed with a clear film and incubated for 3 days at 23° C. After incubation, plates are evaluate for percent growth relative to acetone only control.

[19] = test system: Penicillium expansum; assay: In vitro volatile assay (Example 24); type: cell-based; conditions: 72 h, headspace, 100% control, 3 days at 23 C, read-out: Volatile MIC (mg/L) P. expansum
Description: as §6

| Compound | Orange Sporulation (mm) [7] [mm] | Apple Browning (mm) [8] [mm] | Apple Sporulation (mm) [8] [mm] | Pear Browning (mm) [8] [mm] | Pear Sporulation (mm) [8] [mm] | Orange Sporulation (mm) [9] [mm] | Apple Browning (mm) [10] [mm] | Apple Sporulation (mm) [10] [mm] | Pear Browning (mm) [10] [mm] | Pear Sporulation (mm) [10] [mm] | MIC [11] [mg/L] | MIC [12] [mg/L] | MIC [13] [mg/L] | MIC [14] [mg/L] | MIC [15] [mg/L] | also measured |
| --- | --- | --- | --- | --- | --- | --- | --- | --- | --- | --- | --- | --- | --- | --- | --- | --- |
| Nc1nc(=O)[nH]cc1F [5-Fluorocytosine, 5-fluorocytosine] |  |  |  |  |  |  |  |  |  |  |  |  |  |  |  | MIC [1]: > 50 mg/L; MIC [2]: > 50 mg/L; MIC [3]: > 50 mg/L; MIC [4]: > 50 mg/L; MIC [5]: > 50 mg/L; MIC [6]: > 50 mg/L |
| C[C@@H]1[C@H](O)[C@@H](C)/C=C/C=C/C=C/C=C/C=C/C=C/C=C/[C@H](O[C@@H]2O[C@H](C)[C@@H](O)[C@H](N)[C@@H]2O)C[C@@H]2O[C@](O)(C[C@@H](O)C[C@@H](O)[C@H](O)CC[C@@H](O)C[C@@H](O)CC(=O)O[C@H]1C)C[C@H](O)[C@H]2C(=O)O [Amphotericin B] |  |  |  |  |  |  |  |  |  |  |  |  |  |  |  | MIC (mg/L) Epidermophyton floccus [1]: 50.0 mg/L (≈ 54.1 µM); MIC (mg/L) Trichophyton mentagrophytes [2]: >50 mg/L; MIC (mg/L) Trichophyton rubrum [3]: >50 mg/L; MIC (mg/L) Epidermophyton floccus [4]: >50 mg/L; MIC (mg/L) Trichophyton mentagrophytes [5]: >50 mg/L; MIC (mg/L) Trichophyton rubrum [6]: >50 mg/L |
| O=C(Nc1ccccc1-c1ccc(Cl)cc1)c1cccnc1Cl [Boscalid] | 30.3 | 7.0 | 0.8 | 8.6 | 2.3 | >50 | 10.3 | 2.4 | 14.3 | 3.6 |  |  |  |  |  |  |
| COB1OCc2ccccc21 [Compound 6] |  |  |  |  |  |  |  |  |  |  | 4.5 (≈ 30.4 µM) | 2.2 (≈ 14.9 µM) | 17.9 (≈ 121 µM) | 8.9 (≈ 60.1 µM) | 17.9 (≈ 121 µM) | MIC [16]: 2 mg/L (≈ 13.5 µM); MIC [17]: 2 mg/L (≈ 13.5 µM); MIC [18]: 4.5 mg/L (≈ 30.4 µM); MIC [19]: 17.9 mg/L (≈ 121 µM) |
| COCCCOB1OCc2ccccc21 [Compound 7] |  |  |  |  |  |  |  |  |  |  | 8.9 (≈ 43.2 µM) | 2.2 (≈ 10.7 µM) | 71.4 (≈ 347 µM) | 8.9 (≈ 43.2 µM) | 17.9 (≈ 86.9 µM) |  |
| COCCOB1OCc2ccccc21 [Compound 8] |  |  |  |  |  |  |  |  |  |  | 8.9 (≈ 46.3 µM) | 2.2 (≈ 11.5 µM) | 71.4 (≈ 372 µM) | 4.5 (≈ 23.4 µM) | 35.7 (≈ 186 µM) |  |
| CC(C)OB1OCc2ccccc21 [Compound 9] |  |  |  |  |  |  |  |  |  |  | 8.9 (≈ 50.6 µM) | 2.2 (≈ 12.5 µM) | 35.7 (≈ 203 µM) | 8.9 (≈ 50.6 µM) | 8.9 (≈ 50.6 µM) |  |
| OB1OCc2cc(Cl)ccc21 [Compound 201] |  |  |  |  |  |  |  |  |  |  | 16.1 (≈ 95.6 µM) | 3.8 (≈ 22.6 µM) | 9.3 (≈ 55.2 µM) | 8.5 (≈ 50.5 µM) | 29.5 (≈ 175 µM) |  |
| OC(Cn1cncn1)(Cn1cncn1)c1ccc(F)cc1F [Fluconazole] |  |  |  |  |  |  |  |  |  |  |  |  |  |  |  | MIC [1]: 10 mg/L (≈ 32.7 µM); MIC [2]: > 50 mg/L; MIC [3]: 50 mg/L (≈ 163 µM); MIC [4]: > 50 mg/L; MIC [5]: > 50 mg/L; MIC [6]: > 50 mg/L |
| N#Cc1c[nH]cc1-c1cccc2c1OC(F)(F)O2 [Fludioxonil] | 40.8 | 2.9 | 0.0 | 3.3 | 0.0 | 8.3 | 11.2 | 3.1 | 12.8 | 2.8 |  |  |  |  |  |  |
| C=CCOC(Cn1ccnc1)c1ccc(Cl)cc1Cl (stereo not shown) [Imazalil] | 41.4 | 6.9 | 0.9 | 7.9 | 1.0 | 0.0 | 11.1 | 3.0 | 14.3 | 3.4 |  |  |  |  |  |  |
| CCC(C)n1ncn(-c2ccc(N3CCN(c4ccc(OCC5COC(Cn6cncn6)(c6ccc(Cl)cc6Cl)O5)cc4)CC3)cc2)c1=O (stereo not shown) [Itraconazole] |  |  |  |  |  |  |  |  |  |  |  |  |  |  |  | MIC [1]: > 50 mg/L; MIC [2]: > 50 mg/L; MIC [3]: > 50 mg/L; MIC [4]: > 50 mg/L; MIC [5]: > 50 mg/L; MIC [6]: > 50 mg/L |
| Cc1cc(C)nc(Nc2ccccc2)n1 [Pyrimethanil] | 22.3 | 8.1 | 2.4 | 8.9 | 5.2 | 0.0 | 11.3 | 2.6 | 14.0 | 6.5 |  |  |  |  |  |  |
| c1ccc2[nH]c(-c3cscn3)nc2c1 [Thiabendazole] | >50 | 8.2 | 1.9 | 9.1 | 5.4 | 0.0 | 8.4 | 2.0 | 12.9 | 3.0 |  |  |  |  |  |  |
| Caspofungin diacetate |  |  |  |  |  |  |  |  |  |  |  |  |  |  |  | MIC (mg/L) Epidermophyton floccus [1]: 2.0 mg/L; MIC (mg/L) Trichophyton mentagrophytes [2]: 50.0 mg/L; MIC (mg/L) Trichophyton rubrum [3]: 10.0 mg/L; MIC (mg/L) Epidermophyton floccus [4]: >50 mg/L; MIC (mg/L) Trichophyton mentagrophytes [5]: >50 mg/L; MIC (mg/L) Trichophyton rubrum [6]: >50 mg/L |

— patent publication US12329158B2, “Large-scale methods of uniformly coating packaging surfaces with a volatile antimicrobial to preserve food freshness” (AGROFRESH INC., priority 2013, dated 2025)
